PubChem BioAssay AID256 (DTP/NCI, 2004)
Several values for one entry are separate records, joined by “and”; a condition that tells them apart may be missing. Equal entries are not always repeated. Inconclusive results and toxic doses are left out.

System: CD2F1 mice, L1210 leukemia ip, survival T/C
Assay: NCI In Vivo Anticancer Drug Screen. Data for tumor model L1210 Leukemia (intraperitoneal) in CD2F1 (CDF1) mice
Details: higher = longer survival
Method in brief: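 Tumor-bearing mice (transplanted tumor) were split into treated and vehicle control groups, and the measured endpoint of each treated group was divided by that of its vehicle controls.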

[1] = endpoint: mean survival time, dose: 100.0 mg/kg/injection, schedule: Q04DX003 (ip), vehicle: saline with Tween-80
[2] = endpoint: mean survival time, dose: 200.0 mg/kg/injection, schedule: Q04DX003 (ip), vehicle: saline with Tween-80
[3] = endpoint: mean survival time, dose: 400.0 mg/kg/injection, schedule: Q04DX003 (ip), vehicle: saline with Tween-80
[4] = endpoint: mean survival time, dose: 12.5 mg/kg/injection, schedule: Q01DX009 (ip), vehicle: saline
[5] = endpoint: mean survival time, dose: 25.0 mg/kg/injection, schedule: Q01DX009 (ip), vehicle: saline
[6] = endpoint: mean survival time, dose: 50.0 mg/kg/injection, schedule: Q01DX009 (ip), vehicle: saline
[7] = endpoint: mean survival time, dose: 100.0 mg/kg/injection, schedule: Q01DX001 (ip), vehicle: saline with Tween-80
[8] = endpoint: mean survival time, dose: 200.0 mg/kg/injection, schedule: Q01DX001 (ip), vehicle: saline with Tween-80
[9] = endpoint: mean survival time, dose: 400.0 mg/kg/injection, schedule: Q01DX001 (ip), vehicle: saline with Tween-80
[10] = endpoint: mean survival time, dose: 50.0 mg/kg/injection, schedule: Q01DX009 (ip), vehicle: saline with Tween-80

COc1cc(C(Cl)C2OC(CO)C(O)C2O)nc(C)n1 (stereo not drawn)
T/C (endpoint: median survival time, dose: 18.38 mg/kg/injection, schedule: Q01DX005 (ip), vehicle: saline): 110 % of control
T/C (endpoint: median survival time, dose: 26.0 mg/kg/injection, schedule: Q01DX005 (ip), vehicle: saline): 103 % of control
T/C (endpoint: median survival time, dose: 36.75 mg/kg/injection, schedule: Q01DX005 (ip), vehicle: saline): 97 % of control
T/C (endpoint: median survival time, dose: 52.0 mg/kg/injection, schedule: Q01DX005 (ip), vehicle: saline): 102 % of control
T/C (endpoint: median survival time, dose: 73.5 mg/kg/injection, schedule: Q01DX005 (ip), vehicle: saline): 100 % of control
T/C (endpoint: median survival time, dose: 104.0 mg/kg/injection, schedule: Q01DX005 (ip), vehicle: saline): 107 % of control
T/C (endpoint: median survival time, dose: 147.0 mg/kg/injection, schedule: Q01DX005 (ip), vehicle: saline): 103 % of control
T/C (endpoint: median survival time, dose: 208.0 mg/kg/injection, schedule: Q01DX005 (ip), vehicle: saline): 101 % of control

CN1CCCN(C)C1c1cc([N+](=O)[O-])ccc1O
T/C (endpoint: mean survival time, dose: 6.25 mg/kg/injection, schedule: Q01DX009 (ip), vehicle: saline sonified): 100 % of control
T/C (endpoint: mean survival time, dose: 6.25 mg/kg/injection, schedule: Q04DX003 (ip), vehicle: saline sonified): 106 % of control
T/C (endpoint: mean survival time, dose: 12.5 mg/kg/injection, schedule: Q01DX009 (ip), vehicle: saline sonified): 98 % of control
T/C (endpoint: mean survival time, dose: 12.5 mg/kg/injection, schedule: Q04DX003 (ip), vehicle: saline sonified): 101 % of control
T/C (endpoint: mean survival time, dose: 25.0 mg/kg/injection, schedule: Q01DX009 (ip), vehicle: saline sonified): 89 % of control
T/C (endpoint: mean survival time, dose: 25.0 mg/kg/injection, schedule: Q04DX003 (ip), vehicle: saline sonified): 98 % of control

CCC/C(C)=N/Nc1ccc([N+](=O)[O-])cc1
T/C (endpoint: mean survival time, dose: 100.0 mg/kg/injection, schedule: Q01DX009 (ip), vehicle: saline with Tween-80): 94 % of control
T/C [1]: 95 % of control
T/C (endpoint: mean survival time, dose: 200.0 mg/kg/injection, schedule: Q01DX009 (ip), vehicle: saline with Tween-80): 100 % of control
T/C [2]: 97 % of control
T/C (endpoint: mean survival time, dose: 400.0 mg/kg/injection, schedule: Q01DX009 (ip), vehicle: saline with Tween-80): 94 % of control
T/C [3]: 93 % of control

CCC(C)[N+](=O)[O-] (stereo not drawn)
T/C (endpoint: mean survival time, dose: 50.0 mg/kg/injection, schedule: Q01DX001 (ip), vehicle: saline): 94 % of control
T/C (endpoint: mean survival time, dose: 100.0 mg/kg/injection, schedule: Q01DX001 (ip), vehicle: saline): 98 % of control
T/C (endpoint: mean survival time, dose: 200.0 mg/kg/injection, schedule: Q01DX001 (ip), vehicle: saline): 102 % of control

COC1C(/C=C/C(C)=O)OC2OC(C)(C)OC21 (stereo not drawn)
T/C (endpoint: mean survival time, dose: 6.25 mg/kg/injection, schedule: Q01DX009 (ip), vehicle: saline): 110 % of control
T/C [4]: 110 % of control
T/C [5]: 95 % of control
T/C [6]: 103 % of control
T/C (endpoint: mean survival time, dose: 100.0 mg/kg/injection, schedule: Q01DX009 (ip), vehicle: saline): 109 % of control
T/C (endpoint: mean survival time, dose: 200.0 mg/kg/injection, schedule: Q01DX009 (ip), vehicle: saline): 116 % of control

CSc1n[nH]c(N)n1
T/C [1]: 94 % of control
T/C [2]: 94 % of control
T/C [3]: 90 % of control

ClCCn1c(CCl)nc2ccc(Cl)cc21
T/C (endpoint: mean survival time, dose: 2.5 mg/kg/injection, schedule: Q01DX009 (ip), vehicle: Klucel (hydroxypropylcellulose) (HPC)): 109 % of control
T/C (endpoint: mean survival time, dose: 5.0 mg/kg/injection, schedule: Q01DX009 (ip), vehicle: Klucel (hydroxypropylcellulose) (HPC)): 101 % of control
T/C (endpoint: mean survival time, dose: 10.0 mg/kg/injection, schedule: Q01DX009 (ip), vehicle: Klucel (hydroxypropylcellulose) (HPC)): 95 % of control and 102 % of control

COc1ccc(NC2=NCCS2)cc1
T/C [1]: 94 % of control
T/C [2]: 101 % of control

CCC1(C)CCC2=C(CCC3C(C)(C(=O)OC)CCCC23C)C1 (stereo not drawn)
T/C [7]: 93 % of control
T/C [8]: 89 % of control
T/C [9]: 89 % of control

CC(=O)NC(Cc1ccccc1)C(C)=O (stereo not drawn)
T/C [7]: 102 % of control
T/C [8]: 98 % of control
T/C [9]: 102 % of control

CC[N+](C)(CC)CCOC(=O)c1ccccc1Oc1ccc(C)cc1
T/C [5]: 107 % of control
T/C [6]: 107 % of control

CN(C)c1ccc(/C=N/NC(=O)CNC(=O)Nc2cccc([N+](=O)[O-])c2)c(Cl)c1
T/C [10]: 88 % of control

O=C(O)Cc1ccncc1
T/C [1]: 97 % of control
T/C [2]: 100 % of control
T/C [3]: 97 % of control

Clc1ccc2c(c1)[N-]c1ccccc1S2.Clc1ccc2c(c1)[N-]c1ccccc1S2.[Cl][Pt+2][Cl]
T/C (endpoint: mean survival time, dose: 3.8 mg/kg/injection, schedule: Q04DX003 (ip), vehicle: saline with Tween-80): 102 % of control
T/C (endpoint: mean survival time, dose: 7.5 mg/kg/injection, schedule: Q04DX003 (ip), vehicle: saline with Tween-80): 102 % of control
T/C (endpoint: mean survival time, dose: 15.0 mg/kg/injection, schedule: Q04DX003 (ip), vehicle: saline with Tween-80): 90 % of control
T/C (endpoint: mean survival time, dose: 30.0 mg/kg/injection, schedule: Q04DX003 (ip), vehicle: saline with Tween-80): 94 % of control
T/C (endpoint: mean survival time, dose: 60.0 mg/kg/injection, schedule: Q04DX003 (ip), vehicle: saline with Tween-80): 90 % of control

NCc1cnc(N)nc1N
T/C [1]: 98 % of control
T/C [2]: 102 % of control

CC(C)c1ccc2cc(C(C)C)ccc2c1
T/C [1]: 86 % of control
T/C [2]: 92 % of control
T/C [3]: 92 % of control

Cc1cccc(N/N=C2\CCSc3ccccc32)c1
T/C [7]: 100 % of control
T/C [8]: 100 % of control
T/C [9]: 103 % of control

C=C1C(=O)OCC2(CC)CCCCC12 (stereo not drawn)
T/C (endpoint: mean survival time, dose: 5.0 mg/kg/injection, schedule: Q01DX009 (ip), vehicle: water): 94 % of control
T/C (endpoint: mean survival time, dose: 10.0 mg/kg/injection, schedule: Q01DX009 (ip), vehicle: water): 88 % of control
T/C (endpoint: mean survival time, dose: 20.0 mg/kg/injection, schedule: Q01DX009 (ip), vehicle: water): 96 % of control

COc1cc(/C=N\NC(=O)CNC(=O)Nc2cccc(Cl)c2)ccc1O
T/C (endpoint: mean survival time, dose: 12.5 mg/kg/injection, schedule: Q01DX009 (ip), vehicle: saline with Tween-80): 91 % of control
T/C (endpoint: mean survival time, dose: 25.0 mg/kg/injection, schedule: Q01DX009 (ip), vehicle: saline with Tween-80): 91 % of control
T/C [10]: 91 % of control

CCCC1CC[N-]CC1.CCCC1CC[N-]CC1.[Cl][Cu][Cl]
T/C (endpoint: mean survival time, dose: 3.13 mg/kg/injection, schedule: Q01DX009 (ip), vehicle: saline): 96 % of control
T/C [4]: 94 % of control

O/N=C/C1CCCC[N-]1.O/N=C/C1CCCC[N-]1.O/N=C/C1CCCC[N-]1.[Cu] (stereo not drawn)
T/C (endpoint: median survival time, dose: 0.75 mg/kg/injection, schedule: Q03HX024 (ip), vehicle: saline): 95 % of control
T/C (endpoint: median survival time, dose: 1.5 mg/kg/injection, schedule: Q03HX024 (ip), vehicle: saline): 95 % of control
T/C (endpoint: median survival time, dose: 6.0 mg/kg/injection, schedule: Q03HX024 (ip), vehicle: saline): 104 % of control
T/C (endpoint: median survival time, dose: 8.0 mg/kg/injection, schedule: Q03HX024 (ip), vehicle: saline): 179 % of control

COc1ccc(C(=O)C(c2ccccc2)c2ccccc2)cc1
T/C [1]: 93 % of control
T/C [2]: 94 % of control
T/C [3]: 90 % of control

COc1cc(OC)cc(C(=O)Cl)c1
T/C (endpoint: mean survival time, dose: 100.0 mg/kg/injection, schedule: Q04DX003 (ip), vehicle: saline sonified): 98 % of control
T/C (endpoint: mean survival time, dose: 200.0 mg/kg/injection, schedule: Q04DX003 (ip), vehicle: saline sonified): 95 % of control
T/C (endpoint: mean survival time, dose: 400.0 mg/kg/injection, schedule: Q04DX003 (ip), vehicle: saline sonified): 91 % of control

CC(=O)OC1CC2C=CCC21 (stereo not drawn)
T/C [7]: 100 % of control
T/C [8]: 96 % of control
T/C [9]: 96 % of control
